Experimental data taken from paper PMC8807614 (Scientific Reports, 2022).
Numbered stars: 1 amine (or outer) side, 2 acyl side, 3 side chain; on linkers, the order of the positions; unused ones are H or OH. Side chains are listed from the residue outwards. Ends that are not written are not given here. Peptide text beside a SMILES is read from it. * marks the point of attachment. γGlu = O=C(O)[C@H](CCC(=O)[*:2])N[*:1]; Stearoyl = CCCCCCCCCCCCCCCCCC(=O)*; AEEA = NCCOCCOCC(=O)O

What was measured:
[1] = In vivo plasma metabolite identification (MetID) of GUB03385; parameters: species or system DIO mice; settings: UPLC-Orbitrap MS; for %AUC 30 min: metabolite of GUB03385 in plasma of DIO mice 30 min after GUB03385 1250 nmol/kg SC; for %AUC 60 min: metabolite of GUB03385 in plasma of DIO mice 60 min after GUB03385 1250 nmol/kg SC; for %AUC 120 min: metabolite of GUB03385 in plasma of DIO mice 120 min after GUB03385 1250 nmol/kg SC
Procedure: Cardiac blood samples from DIO mice dosed with GUB03385 (1250 nmol/kg, SC, n = 10) were collected after 5, 10, 30, 60 and 120 min. Anaesthesia was performed using 2–4% isoflurane/O2 (Attane Vet., ScanVet Animal Health, Fredensborg, Denmark) inhalation. Blood samples were centrifuged (3000 g, 10 min) and plasma supernatants were stored at − 80 °C until MS analysis which was performed by Admescope Ltd (Oulu, Finland). Plasma precipitation was performed with twofold volume of cold acetonitrile containing 1% of formic acid. After centrifugation ([…], 10 min), supernatant was pipetted to 96-well plate and analysed using a Waters Acquity UPLC coupled to a Thermo Q-Exactive Focus Orbitrap MS. Peptides were separated on a Waters CSH C18 (2.1 × 50 mm, […]) column with a linear gradient from 2 to 40% acetonitrile over 3.5 min at a flowrate of 0.5 mL/min. Mass spectra were acquired in positive ionization mode in the mass range 133–2000 m/z with a resolution of 35,000; MS/MS data were acquired at a resolution of 17,500 in AIF mode with a normalized collision energy of 57. Data analysis and profiling of metabolites was performed by Admescope using Thermo XCalibur 4.1.31.9.

[2] = molecular target: T1, human prolactin releasing peptide receptor (GPR10) (Homo sapiens, UniProt P49683); experiment: GPR10 functional activity assay (IP1, HTRF); type: cell-based; settings: Chem-1 cells stably expressing human GPR10, 10.000 cells/well; HTRF IP1 (CisBio); 30 min at 37 °C; IP1 stimulation buffer with 0.05% casein; 11 concentrations
T1 sequence (P49683 1-370): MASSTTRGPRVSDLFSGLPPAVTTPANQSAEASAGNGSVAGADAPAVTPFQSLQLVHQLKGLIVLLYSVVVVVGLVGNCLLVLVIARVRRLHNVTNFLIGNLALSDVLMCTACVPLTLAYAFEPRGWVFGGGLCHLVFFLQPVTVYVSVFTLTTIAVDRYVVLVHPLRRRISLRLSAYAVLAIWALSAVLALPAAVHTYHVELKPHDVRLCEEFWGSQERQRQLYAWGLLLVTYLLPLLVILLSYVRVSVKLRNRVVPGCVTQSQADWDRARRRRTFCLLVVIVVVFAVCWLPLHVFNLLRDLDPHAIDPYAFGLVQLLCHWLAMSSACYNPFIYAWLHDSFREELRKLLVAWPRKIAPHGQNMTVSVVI

human NPFF2R = human NPFF2R (Homo sapiens, UniProt Q9Y5X5); experiment: NPFF2R functional activity assay (cAMP, HTRF); type: cell-based; settings: CHO-K1 cells stably expressing human NPFF2R, 1500 cells/well; HTRF cAMP (CisBio); 3 µM forskolin (~90% activity level); 30 min; DPBS, 0.5 mM IBMX, 0.05% casein; 11 concentrations
human NPFF2R, sequence (Q9Y5X5 whole entry): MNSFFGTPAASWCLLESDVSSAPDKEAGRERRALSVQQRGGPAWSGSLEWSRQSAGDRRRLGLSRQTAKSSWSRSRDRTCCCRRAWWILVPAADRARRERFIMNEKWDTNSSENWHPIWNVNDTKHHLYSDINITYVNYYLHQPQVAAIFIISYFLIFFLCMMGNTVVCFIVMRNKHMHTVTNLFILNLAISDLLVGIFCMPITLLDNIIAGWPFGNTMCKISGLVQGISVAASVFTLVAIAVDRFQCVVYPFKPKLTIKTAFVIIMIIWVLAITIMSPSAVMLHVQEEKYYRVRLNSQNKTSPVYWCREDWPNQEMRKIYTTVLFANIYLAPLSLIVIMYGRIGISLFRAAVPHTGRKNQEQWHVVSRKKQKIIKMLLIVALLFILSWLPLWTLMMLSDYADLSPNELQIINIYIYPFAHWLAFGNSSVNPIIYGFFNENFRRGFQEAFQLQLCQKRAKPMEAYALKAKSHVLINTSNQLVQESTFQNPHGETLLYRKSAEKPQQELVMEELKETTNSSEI
Procedure: Figure 3 GPR10 and NPFF2R profiling of in vivo metabolites of GUB03385. […] (b) cAMP measurements in human NPFF2R CHO-K cells (HTRF technology, CisBio) at a fixed concentration of 3 µM forskolin after 30 min. incubation at room temperature with metabolites and the native peptide NPSF. Representative curves of three determinations.
The Homogenous Time Resolved Fluorescence (HTRF) technology optimized for Gq coupled receptors has thoroughly been described in the CisBio IP1 kit manual (#62IPAPEC) and in the cAMP assay kit manual for Gi coupled receptors (#62AM9PEC). Briefly, this technic is based on a competitive immunoassay using cryptate-labelled anti-cAMP or anti-IP1 antibodies and d2-labeled cAMP or IP1. In the absence of cellular cAMP or IP1, the anti-cryptate conjugate may get into proximity to the d2 conjugate and energy (FRET) can be transferred from cryptate to d2. Chem-1 cells stably expressing the human prolactin releasing peptide receptor (GPR10, Eurofins, # HTS057C) and irradiated CHO-K1 cells stably expressing the human NPFF2R (PerkinElmer, #ES-490-CF) were applied as cells in suspension, brought to life from frozen cell stocks immediately before assay performance. 384-Well (Corning, #4513) assay formats with a total assay volume of 20 µl were applied. GPR10 cells (10.000 cells/well) were incubated with agonist peptides and the NPFF2R cells (1500 cells/well) were incubated with agonist peptides and forskolin (~ 90% activity level) for 30 min at 37 °C using IP1 kit stimulation buffer and DPBS (Sigma, #D8537) containing 0.5 mM IBMX (Sigma, # I5879), receptively. Both stimulation buffers were supplemented with 0.05% casein (Sigma, # C4765-10 ml). After addition of HTRF® detection reagents and incubation with shaking (2400 rpm) for one hour at room temperature signals at 620 and 665 nm (raw counts: ratio of 665/620) were detected at a ClarioStar plate reader (BMG Labtech, Ortenberg, Germany). Concentration–response evaluation of compounds was performed with 11 concentrations of agonist peptides (covering 3 decades) and EC50 values were calculated by nonlinear regression using sigmoid concentration–response with variable slope. Data were analysed using GraphPad v9.1 software (GraphPad, La Jolla, CA).

Row | Molecule | %AUC 30 min [1] | %AUC 60 min [1] | %AUC 120 min [1] | other results
1 | CCCCCCCCCCCCCCCCCC(=O)N[C@@H](CCC(=O)NCCOCCOCC(=O)NCCOCCOCC(=O)NCCCC[C@H](NC(=O)CNC(=O)[C@H](CCCNC(=N)N)NC(=O)[C@H](CO)NC(=O)[C@H](C)NC(=O)[C@H](Cc1ccc(O)cc1)NC(=O)[C@H](Cc1c[nH]c2ccccc12)NC(=O)[C@H](C)NC(=O)[C@@H]1CCCN1C(=O)[C@H](CC(N)=O)NC(=O)[C@@H](NC(=O)[C@H](CC(=O)O)NC(=O)[C@@H]1CCCN1C(=O)[C@@H](NC(=O)[C@H](CCCNC(=N)N)NC(=O)[C@@H](NC(=O)[C@H](CCC(=O)O)NC(=O)[C@H](CCSC)NC(=O)[C@H](CO)NC(=O)[C@H](Cc1c[nH]cn1)NC(=O)[C@H](CCCNC(=N)N)NC(=O)[C@H](Cc1c[nH]cn1)NC(=O)[C@@H](NC(=O)[C@H](CCCNC(=N)N)NC(=O)[C@@H](N)CO)[C@@H](C)O)[C@@H](C)CC)[C@@H](C)O)[C@@H](C)CC)C(=O)N[C@@H](CCCNC(=N)N)C(=O)N1CCC[C@H]1C(=O)N[C@H](C(=O)NCC(=O)N[C@@H](CCCNC(=N)N)C(=O)N[C@@H](Cc1ccccc1)C(N)=O)C(C)C)C(=O)O [GUB03385] (H-SRTHRHSMEIRTPDINPAWYASRGK([AEEA-AEEA-γGlu-Stearoyl])RPVGRF-NH2) | – | – | – | time of degradation after subcutaneous administration ([1]; DIO mice, 1250 nmol/kg SC, plasma): < 30 min
2 | CCCCCCCCCCCCCCCCCC(=O)N[C@@H](CCC(=O)NCCOCCOCC(=O)NCCOCCOCC(=O)NCCCC[C@H](NC(=O)CNC(=O)[C@H](CCCNC(=N)N)NC(=O)[C@@H](N)CO)C(=O)N[C@@H](CCCNC(=N)N)C(=O)N1CCC[C@H]1C(=O)N[C@H](C(=O)O)C(C)C)C(=O)O [GUB08250] (H-SRGK([AEEA-AEEA-γGlu-Stearoyl])RPV-OH; C-terminus assumed) | 48% | 23% | 14% | –
3 | TPDINPAWYASRGIRPVGRF-NH2 [PrRP20] | – | – | – | EC50 [2]: 0.2 nM; EC50 (human NPFF2R): > 5000 nM
4 | CCCCCCCCCCCCCCCCCC(=O)N[C@@H](CCC(=O)NCCOCCOCC(=O)NCCOCCOCC(=O)NCCCC[C@H](N)C(=O)N[C@@H](CCCNC(=N)N)C(=O)N1CCC[C@H]1C(=O)N[C@H](C(=O)O)C(C)C)C(=O)O [GUB08254] (H-K([AEEA-AEEA-γGlu-Stearoyl])RPV-OH; C-terminus assumed) | – | 5% | 11% | –
5 | CCCCCCCCCCCCCCCCCC(=O)N[C@@H](CCC(=O)NCCOCCOCC(=O)NCCOCCOCC(=O)NCCCC[C@H](NC(=O)CNC(=O)[C@H](CCCNC(=N)N)NC(=O)[C@@H](N)CO)C(=O)N[C@@H](CCCNC(=N)N)C(=O)N1CCC[C@H]1C(=O)N[C@H](C(=O)NCC(=O)O)C(C)C)C(=O)O [GUB08249] (H-SRGK([AEEA-AEEA-γGlu-Stearoyl])RPVG-OH; C-terminus assumed) | 18% | 9% | 7% | –
6 | CCCCCCCCCCCCCCCCCC(=O)N[C@@H](CCC(=O)NCCOCCOCC(=O)NCCOCCOCC(=O)NCCCC[C@H](N)C(=O)N[C@@H](CCCNC(=N)N)C(=O)N1CCC[C@H]1C(=O)N[C@H](C(=O)NCC(=O)O)C(C)C)C(=O)O [GUB08253] (H-K([AEEA-AEEA-γGlu-Stearoyl])RPVG-OH; C-terminus assumed) | – | 11% | 15% | –
7 | CC(C)C[C@H](NC(=O)[C@H](Cc1ccccc1)NC(=O)[C@H](C)NC(=O)[C@H](CCC(N)=O)NC(=O)[C@@H](N)CO)C(=O)N[C@@H](Cc1ccccc1)C(=O)N[C@@H](CCC(N)=O)C(=O)N1CCC[C@H]1C(=O)N[C@@H](CCC(N)=O)C(=O)N[C@@H](CCCNC(=N)N)C(=O)N[C@@H](Cc1ccccc1)C(N)=O [NPSF, neuropeptide SF] | – | – | – | EC50 [2]: > 5000 nM; EC50 (human NPFF2R): 5.6 nM
8 | CCCCCCCCCCCCCCCCCC(=O)N[C@@H](CCC(=O)NCCOCCOCC(=O)NCCOCCOCC(=O)NCCCC[C@H](N)C(=O)N[C@@H](CCCNC(=N)N)C(=O)N1CCC[C@H]1C(=O)N[C@H](C(=O)NCC(=O)N[C@@H](CCCNC(=N)N)C(=O)O)C(C)C)C(=O)O [GUB08252] (H-K([AEEA-AEEA-γGlu-Stearoyl])RPVGR-OH; C-terminus assumed) | – | 11% | 10% | –
9 | CCCCCCCCCCCCCCCCCC(=O)N[C@@H](CCC(=O)NCCOCCOCC(=O)NCCOCCOCC(=O)NCCCC[C@H](NC(=O)CNC(=O)[C@H](CCCNC(=N)N)NC(=O)[C@@H](N)CO)C(=O)N[C@@H](CCCNC(=N)N)C(=O)N1CCC[C@H]1C(=O)N[C@H](C(=O)NCC(=O)N[C@@H](CCCNC(=N)N)C(=O)N[C@@H](Cc1ccccc1)C(N)=O)C(C)C)C(=O)O [GUB08248] (H-SRGK([AEEA-AEEA-γGlu-Stearoyl])RPVGRF-NH2) | 11% | 5% | – | –
10 | CCCCCCCCCCCCCCCCCC(=O)N[C@@H](CCC(=O)NCCOCCOCC(=O)NCCOCCOCC(=O)NCCCC[C@H](NC(=O)CN)C(=O)N[C@@H](CCCNC(=N)N)C(=O)N1CCC[C@H]1C(=O)N[C@H](C(=O)NCC(=O)N[C@@H](CCCNC(=N)N)C(=O)N[C@@H](Cc1ccccc1)C(N)=O)C(C)C)C(=O)O [GUB08251] (H-GK([AEEA-AEEA-γGlu-Stearoyl])RPVGRF-NH2) | – | 7% | 8% | –
11 | CCCCCCCCCCCCCCCCCC(=O)N[C@@H](CCC(=O)NCCOCCOCC(=O)NCCOCCOCC(=O)NCCCC[C@H](NC(=O)CNC(=O)[C@H](CCCNC(=N)N)NC(=O)[C@H](CO)NC(=O)[C@H](C)N)C(=O)N[C@@H](CCCNC(=N)N)C(=O)N1CCC[C@H]1C(=O)N[C@H](C(=O)NCC(=O)O)C(C)C)C(=O)O [GUB08247] (H-ASRGK([AEEA-AEEA-γGlu-Stearoyl])RPVG-OH; C-terminus assumed) | 34% | 7% | 1% | –
12 | CC[C@H](C)[C@H](NC(=O)CNC(=O)[C@H](CCCNC(=N)N)NC(=O)[C@H](CO)NC(=O)[C@H](C)NC(=O)[C@H](Cc1ccc(O)cc1)NC(=O)[C@H](Cc1c[nH]c2ccccc12)NC(=O)[C@H](C)NC(=O)[C@@H]1CCCN1C(=O)[C@H](CC(N)=O)NC(=O)[C@@H](NC(=O)[C@H](CC(=O)O)NC(=O)[C@@H]1CCCN1C(=O)[C@@H](NC(=O)[C@H](CCCNC(=N)N)NC(=O)[C@@H](NC(=O)[C@H](CCC(=O)O)NC(=O)[C@H](CCSC)NC(=O)[C@H](CO)NC(=O)[C@H](Cc1c[nH]cn1)NC(=O)[C@H](CCCNC(=N)N)NC(=O)[C@H](Cc1c[nH]cn1)NC(=O)[C@@H](NC(=O)[C@H](CCCNC(=N)N)NC(=O)[C@@H](N)CO)[C@@H](C)O)[C@@H](C)CC)[C@@H](C)O)[C@@H](C)CC)C(=O)N[C@@H](CCCNC(=N)N)C(=O)N1CCC[C@H]1C(=O)N[C@H](C(=O)NCC(=O)N[C@@H](CCCNC(=N)N)C(=O)N[C@@H](Cc1ccccc1)C(N)=O)C(C)C [PrRP31] | – | – | – | EC50 (human NPFF2R): > 5000 nM
